Results from patent publication US20170281642A1, “METHODS OF TREATING ACUTE MYELOID LEUKEMIA OR ACUTE LYMPHOID LEUKEMIA USING PHARMACEUTICAL COMPOSITIONS CONTAINING THIENOTRIAZOLODIAZEPINE COMPOUNDS” (ONCOETHIX GmbH, priority 2014, published 2017).
Entries after “also recorded” stand apart in the source; their conditions may differ.

Columns and labels:
[1] = system: c-MYC; test: c-MYC mRNA (quantitative RT-PCR) and protein (Western blotting) expression in acute leukemia cell lines; type: cell-based; conditions: 500 nM
[2] = system: BRD2/3/4; test: BRD2/3/4 expression in acute leukemia cell lines; type: cell-based; conditions: 500 nM, 48 h
[3] = system: BRD2; test: BRD2 protein expression in acute leukemia cell lines; type: cell-based; conditions: 500 nM; most cell lines (OCI-AML3, JURKAT, RS4-11, NB4, NOMO-1, HL60)
[4] = system: BRD3; test: BRD3 protein levels in acute leukemia cell lines; type: cell-based; conditions: 500 nM; all cell lines evaluated
[5] = system: BRD4; test: BRD4 protein expression in acute leukemia cell lines; type: cell-based; conditions: 500 nM; only OCI-AML3, NB4 and K562 cell lines
[6] = system: HEXIM1; test: HEXIM1 mRNA and protein expression in acute leukemia cell lines; type: cell-based
[7] = system: nine AML and four ALL cell lines; test: cell viability, MTT assay; type: cell-based
Method: Cellular effects of compound (1-1) in various acute leukemia subtypes were evaluated. Cell viability after compound (1-1) exposure was evaluated with the MTT assay in nine AML and four ALL cell lines. Significant growth inhibition, defined as submicromolar IC50, was found in six of nine AML cell lines and all four ALL cell lines tested. The K562, KG1a and HL60 AML cell lines were resistant to compound (1-1).

[8] = system: AML and ALL cell lines; test: cell cycle analysis; type: cell-based; conditions: 500 nM, 48 h
[9] = system: AML and ALL cell lines; test: apoptosis by Annexin V staining and PI uptake; type: cell-based; conditions: 72 h; for apoptotic cells: 500 nM
Method: (§1) At 500 nM compound (1-1), 30-90% of cells were apoptotic in five of nine AML cell lines (HEL, NB4, NOMO-1, OCI-AML3, KASUMI) and 50-90% in two of four ALL cell lines (JURKAT and RS4-11; FIG. 14C).

[10] = system: caspase-3 and cytochrome c; test: caspase-3 activation and cytochrome c release in cell lines; type: cell-based; conditions: 500 nM, 72 h
Method: as §1

[11] = system: BM mononuclear cells from ALL and AML patients; test: ex vivo apoptosis in BM mononuclear cells of ALL and AML patients; type: cell-based, human; conditions: 500 nM, 72 h
Method: (§2) Apoptosis, mRNA and protein expression were evaluated in BM mononuclear cells obtained from representative newly diagnosed or relapsed ALL and AML patients, see Table 7, treated in the context of an ongoing Phase Ib study with compound (1-1) and for whom sufficient material for analysis was available. Apoptosis induction by exposure to 500 nM compound (1-1) for 72 h was variable among the patient samples tested (FIG. 15A).

[12] = system: caspase-3 and cytochrome c; test: ex vivo caspase-3 activation and mitochondrial cytochrome c release in AML patient samples; type: cell-based, human; conditions: samples from three AML patients
Method: as §2

[13] = system: c-MYC; test: ex vivo c-MYC mRNA and protein expression in patient samples; type: cell-based, human; conditions: 500 nM
Method: as §2

[14] = system: BRD2; test: ex vivo BRD2 protein expression in primary AML samples; type: cell-based, human; conditions: 500 nM, 72 h; three primary AML samples

## Cc1sc2c(c1C)C(c1ccc(Cl)cc1)=N[C@@H](CC(=O)Nc1ccc(O)cc1)c1nnc(C)n1-2 [compound (1-1), 2-[(6S)-4-(4-chlorophenyl)-2,3,9-trimethyl-6H-thienol[3,2-f]-[1,2,4]triazolo[4,3-a][1,4]diazepin-6-yl]-N-(4-hydroxyphenyl)acetamide dihydrate]
[1]; 24-72 h, all cell lines evaluated other than KG1 (OCI-AML3, K562, NB4, NOMO-1, HL60, JURKAT, RS4-11), dihydrate
  c-MYC protein levels: decreased to a variable extent; also recorded: Decreases
[1]; 4 h and 24 h, same cell lines and KG1
  c-MYC gene expression: decreased ubiquitously
[1]; 24 h, all AML and ALL cell lines (K562, HL-60, NB4, NOMO-1, KG1, OCI-AML3, JURKAT, RS4-11)
  c-MYC RNA levels: ubiquitously downregulated
[2]; HL60 and NOMO-1 cells
  BRD2, BRD3 and BRD4 mRNA expression: increased
[2]; K562 and NB4 cell lines
  BRD2, BRD3 and BRD4 mRNA expression: dramatically decreased
[2]; K562 cells
  BRD2, BRD3 and BRD4 mRNA expression: significantly decreased
[2]; KG1, OCI-AML3, JURKAT, BV-173 and RS4-11
  BRD2, BRD3 and BRD4 mRNA expression: mild variations
[2]; other cell lines (Example 7)
  BRD2, BRD3 and BRD4 mRNA expression: minimal to no increases
[3]
  BRD2 protein expression: decrease
[4]
  BRD3 protein levels: unmodified
[5]
  BRD4 protein expression: decreased
[6]; 500 nM, 4 and 24 h, K562, HL-60, NB4, NOMO-1, KG1, OCI-AML3, JURKAT, RS4-11
  HEXIM1 mRNA expression: increased
[6]; 500 nM, 24-72 h, OCI-AML3, JURKAT and RS4-11 cell lines, dihydrate
  HEXIM1 protein levels: Increases
[6]; 500 nM, 24 h, all cell lines except K562
  HEXIM1 mRNA expression: increased
[6]; 500 nM, 24 h, compound (1-1) resistant K562 cells
  HEXIM1 mRNA expression, increase: insignificant (less than twice)
[6]; OCI-AML3 and RS4-11 cell lines
  HEXIM1 upregulation, rank among cell lines: highest
[7]; K562, KG1a and HL60 AML cell lines
  sensitivity to compound (1-1), MTT: resistant
[7]; six of nine AML cell lines and all four ALL cell lines
  IC50 (growth inhibition, MTT): submicromolar
[8]; KG1a, KG1, HEL, KASUMI and JURKAT
  cells in the sub-G1 phase: significant increase
[8]; all 13 cell lines
  transition from G1 to S-phase: decreased
[9]; five of nine AML cell lines (HEL, NB4, NOMO-1, OCI-AML3, KASUMI)
  apoptotic cells: 30-90%
[9]; two of four ALL cell lines (JURKAT and RS4-11)
  apoptotic cells: 50-90%
[9]; 25 to 500 nM
  apoptosis (Annexin V staining and PI uptake): significant apoptosis
[10]
  caspase-3 activation: activated
  cytochrome c release: induced
[11]; 6 of 14 AML patients (4, 8, 9, 14, 16, 18)
  apoptosis: no or a mild increase
[11]; BM cells from 8 of 14 AML patients (3, 15, 17, 26, 27, 28, 31, 38)
  increased apoptosis compared to control-treated cells: 35-90%
[11]; two ALL patients (40 and 43)
  apoptosis: no or a mild increase
[12]
  activation of caspase-3: induced activation
  mitochondrial cytochrome c release: induced
[13]; 48 h, seven AML samples and two ALL samples
  c-MYC mRNA expression: downregulated
[13]; 72 h, three primary AML samples
  c-MYC protein expression: clearly decreased
[14]
  BRD2 protein expression: clearly decreased
